Here are results for one compound from patent publication US20190298650A1, “FORMULATION AND COMPOSITION FOR PREVENTING AND/OR DISSOLVING BIOFILM ON THE SKIN OF A DOMESTIC ANIMAL” (Dechra Veterinary Products LLC, priority 2018, published 2019).

The structures appear in SMILES notation. In brackets after ≈: the same amount, converted by molar mass.

For assay [1], the system named is Pseudomonas spp isolates from clinical canine otitis cases. The assay is described as follows: Biofilm prevention assay (MIC read visually, then crystal violet OD570). It counts as cell-based. Particulars: 28 isolates, LBB, 24 h at 37° C., NAC alone. An excerpt:
One hundred Pseudomonas spp isolates from clinical canine otitis cases from the UK (96), Dubai (3) and Malta (1) were submitted to NationWide Laboratories Knutton (CAPL) for routine culture and susceptibility testing over a 12 month period. Four isolates were from two dogs with bilateral otitis.
The dilutions were made using a Broth (LBB).
Contents of the wells were discarded prior to washing three times in phosphate buffered saline (PBS) at pH 7.2. […] The contents were removed by micropipetting before plates rinsed thoroughly under running water. […] Plates were covered to prevent evaporation.

Assay [2] concerns Pseudomonas spp isolates from clinical canine otitis cases (biofilm). As to the kind of experiment: Biofilm breaking assay (crystal violet OD570 on a 24 h pre-formed biofilm). It counts as cell-based. As to conditions: only NAC 5 mg/mL, 14 isolates. The procedure: One hundred Pseudomonas spp isolates from clinical canine otitis cases from the UK (96), Dubai (3) and Malta (1) were submitted to NationWide Laboratories Knutton (CAPL) for routine culture and susceptibility testing over a 12 month period. Four isolates were from two dogs with bilateral otitis. […] Isolates were then stored frozen of beads (ProLab UK) at -20° C. […] Negative control wells, in triplicate, contained 180 μL of LBB and 20 μL of distilled, sterile water. Plates were then incubated for 24 hours at 37° C. Contents of the wells were discarded prior to washing three times in phosphate buffered saline (PBS) at pH 7.2. […] 100 μL of Luria-Bertani enrichment broth (LBB) and 100 μL of sterile, distilled water for negative control. […] For the biofilm breaking assay the following dilutions where tested. The dilutions were made using a Broth (LBB). […] Plates were then incubated for another 24 hours period. Contents of the wells were discarded prior to washing three times in phosphate buffered saline (PBS) at pH 7.2. […] The contents were removed by micropipetting before plates rinsed thoroughly under running water. […] Plates were covered to prevent evaporation.

As to `CC(=O)N[C@@H](CS)C(=O)O` [NAC, (2R)-2-acetamido-3-sulfanylpropanoic acid], the MIC in assay [1] turned out to be 50 mg/mL (≈ 306 mM). Besides, in assay [2], the “optical density (OD570) Max.” value was found to be 1.40, the “optical density (OD570) Mean” value is 0.38, the “optical density (OD570) Median” value worked out at 0.26 and the “optical density (OD570) Min.” value is given as −0.03.
